Converted amounts (≈) assume the structure as drawn. “And” between values parts separate entries of the source, which are not always exact repeats. Identical values can stand only once. Like-named read-outs stand apart in the source and are kept apart here.
Experiments:
[1] = system: Staphylococcus aureus resistant strains (6 strains); experiment: In vitro antibacterial activity, MIC by agar double dilution method; type: cell-based; conditions: clinical isolates
Text: (§1) Experimental method: The agar double dilution method (Antimicrob. Agents and Chemother, 40, 1996, 720-726) was used to determine the minimum inhibitory concentration (MIC) of the series of compounds of the invention and the positive control drug linezolid for the test strains. The multipoint inoculation system (Denley A400) was employed to inoculate the bacteria on the agar plate surface with different concentrations of drugs; inoculation amount on each point was about 10^6 CFU/mL. The plates were incubated at 35° C. for 16 hrs before the results were observed. The lowest drug concentration contained in the Petri dish without bacterial growth was used as the minimum inhibitory concentration (MIC value) of the drug fir that strain.
(§2) Test strains: All the test strains were clinically isolated pathogens which were collected from the Nanjing region, and they were re-identified by routine methods before use. 31 strains of the clinically isolated pathogens were chosen, including 6 strains of Enterococcus, 5 Staphylococcus aureus sensitive strains; 5 Staphylococcus epidermidis sensitive strains; 6 Staphylococcus aureus resistant strains; 5 Staphylococcus epidermidis resistant strains; and 4 Streptococcus pneumoniae resistant strains.
(§3) Compounds to be tested were first added 2 ml of DMSO to help them fully dissolved, then added sterile double distilled water to the desired concentration; to all the Petri dish with added drug liquid were added 20 mL MIT medium which was heat-melted to be liquid-like, to make the final drug concentration in the Petri dish to be 64, 32, 16, 8, 4, 2, 1, 0.5, 0.25, 0.125, 0.0625, and 0.031 μg/mL.
(§4) The positive control group was LZ (linezolid, brand name Zyvox, approved by the FDA in 2000 to be firstly sold in the United States, which is the first and also the only one of oxazolidinone antibacterial drugs allowed to enter clinical application).

[2] = system: Staphylococcus epidermidis resistant strains (5 strains); experiment: as above; type: cell-based; conditions: clinical isolates
Text: as §1, §2, §3, §4

[3] = system: Staphylococcus aureus sensitive strains (5 strains); experiment: as above; type: cell-based; conditions: clinical isolates
Text: as §1, §2, §3, §4

[4] = system: Streptococcus pneumoniae resistant strains (4 strains); experiment: as above; type: cell-based; conditions: clinical isolates
Text: as §1, §2, §3, §4

[5] = system: Staphylococcus epidermidis sensitive strains (5 strains); experiment: as above; type: cell-based; conditions: clinical isolates
Text: as §1, §2, §3, §4

Enterococcus (6 strains) = experiment: as above; type: cell-based; conditions: clinical isolates, 35° C. 16 hrs
Text: as §1, §2, §3, §4

[6] = system: LREFA, linezolid-resistant strain of Enterococcus faecium (3 strains); experiment: In vitro antibacterial activity on linezolid-resistant strains, MIC in MHB broth, 96-well plate; type: cell-based; conditions: LREFA (3 strains)
Experimental: (§5) The stock solution of the subject drugs in DMSO was 10 mg/mL. MHA (agar) and MHB (broth) were both prepared according to the manufacturer's requirements.
(§6) Double dilution of drugs: under aseptic operation, 12.8 μL of liquid drug was added into the first well of a 96-well plate, and then added 27.2 μL DMSO and mixed. The 2nd to 12nd wells were all added 20 μL DMSO. 20 μL was taken from the first well to the second well and mixed up. 20 μL was taken from the second well to the third well, which was repeated till the 11st well, from which was taken 20 μL and discarded. The 12nd well only had 20 μL of DMSO as the growth control. Then 180 μL of sterile water was added to each well and mixed up. The drug used as control was prepared by the same method.
(§7) The solutions with different concentrations of antibacterial drugs after the double dilution and DMSO were added into a sterile 96-well plate separately, 10 μL per well, ready for use.
(§8) Single colonies were picked from the MHA plates into 5 ml of sterile saline and mixed up.
(§9) Light transmittance was adjusted to 80% with a spectrophotometer. After being diluted by 1:200 with MHB, 90 μL of such bacteria liquid was added into each of the wells which already had 10 μL of the drug liquid, mixed up, and incubated in a regular biochemical incubator at 35° C. for 20 hrs before the results were read out. At this time, the drug concentration in the 1st to 12nd wells was 32, 16, 8, 4, 2, 1, 0.5, 0.25, 0.125, 0.0625, 0.03125, 0 μg/mL, respectively.
(§10) Two parallel groups were set up for the same diluted concentration of a drug.
(§11) 4) Results Reading and Judgment: Refer to the Standard Recommended by the CLSI, 2010 Edition.
as §4

[7] = system: S.a. ATCC 29213 (standard strain of Staphylococcus aureus); experiment: as above; type: cell-based; conditions: ATCC29213, 35° C. 20 hrs
Experimental: as §5, §6, §7, §8, §9, §10, §11, §4

[8] = system: LREFL, linezolid-resistant strain of Enterococcus faecalis (3 strains); experiment: as above; type: cell-based; conditions: LREFL (3 strains)
Experimental: as §5, §6, §7, §8, §9, §10, §11, §4

[9] = system: LRSE, linezolid-resistant strain of Staphylococcus epidermidis (1 strain); experiment: as above; type: cell-based; conditions: LRSE (1 strain)
Experimental: as §5, §6, §7, §8, §9, §10, §11, §4

[10] = system: LRSA, linezolid-resistant strain of Staphylococcus aureus (3 strains); experiment: as above; type: cell-based; conditions: LRSA (3 strains)
Experimental: as §5, §6, §7, §8, §9, §10, §11, §4

[11] = In vivo pharmacokinetic assays in rats (intragastric and intravenous), plasma Compound 14 by LC-MS/MS; design: species or system SD rats
Experimental: Two routes of administration (intragastric administration and intravenous injection) were employed.
(§12) Intragastric administration: Four healthy SD rats, male, weight 200-250 g, were dosed 15 mg/kg; the delivery volume was 10 ml/kg, prepared with 0.5% CMC-Na. The rats were fasted for 12 hrs before administration, free water-drinking. 0.3 ml of venous blood was taken from the posterior venous plexus of rats to heparinized tubes at 0.25, 0.5, 1.0, 2.0, 3.0, 4.0, 5.0, 7.0, 9.0, 24, and 48 hrs after administration, centrifuged at 3500 rpm for 10 mins to separate the plasma, which was then stored at −20° C. for test.
as §12, with “Intravenous injection: Two” for “Intragastric administration: Four”, “200˜250” for “200-250”, “5” for “15”, “DMSO, Tween 80 and deionized water.” for “0.5% CMC-Na.”, “5 min, 15 min, and” for “0.25,”
The concentration of Compound 14 in plasma was determined by liquid chromatography tandem mass spectrometry.
In accordance with the above experimental methods, the inventor has determined the in vivo pharmacokinetic properties of phosphate (ester) disodium salt 37 of Compound 14 in rats.

[12] = system: methicillin-resistant Staphylococcus aureus ATCC 33591 (MRSA); experiment: In vivo antibacterial activity, mice with systemic infection by MRSA, survival at 48 hours; conditions: female ICR mice, systemic infection (2.35 × 10^7 CFU/mice, intraperitoneal), oral administration 1 hour after infection
Experimental: Test strains: the strain used to infect animals was methicillin-resistant Staphylococcus aureus ATCC 33591 (MRSA).
Experimental animals: female ICR mice, age: 4 to 5 weeks, weight 20 to 22 grams, available from Shanghai Sippr BK Experimental Animal Co., Ltd., qualification certificate No.: 2008001625863.
Experimental method: Mice were randomly divided into groups. There were 4 dosage groups for each subject drug each administration manner: 2.5, 5, 10 and 20 mg/kg, 6 mice for each dosage group. Furthermore, a gastric mucin vehicle group was used as negative control for each administration manner. Mice were intraperitoneally injected with 10^7-10^8 CFU/mL of the bacterial suspension, 0.5 ml/mouse, and at 1 hour after infection the mice were orally administered the corresponding drugs for treatment, dosing volume 0.2 mL/20 g. This research program complied with the provisions and relevant regulations of National Laboratory Animal Management and Welfare.

[13] = In vivo pharmacokinetic assays in rats (intragastric and intravenous), plasma Compound 14 by LC-MS/MS; design: species or system SD rats; conditions: for CLz: parameters of 14 in rats after 10 mg/kg Compound 37 intravenous injection

Row | SMILES | MIC [1] [µg/mL] | MIC [2] [µg/mL] | MIC [3] [µg/mL] | MIC [4] [µg/mL] | MIC [5] [µg/mL] | MIC (Enterococcus (6 strains)) [µg/mL] | MIC [6] [µg/mL] | MIC [7] [µg/mL] | MIC [8] [µg/mL] | MIC [9] [µg/mL] | MIC [10] [µg/mL] | melting point [°C] | plasma exposure of 14 of the group receiving 37 relative to the group receiving 14 ([11]; intragastric administration, upon measurement normalization) [%] | plasma exposure of intravenous injection relative to that of Compound 14 ([11]; intravenous injection, prodrug 37 vs Compound 14) [times] | oral plasma exposure relative to that of Compound 14 ([11]; oral, prodrug 37 vs Compound 14) [times] | ED50 [12] [mg/kg] | CLz ([13]; average value) [mL/min/kg] | CLz ([13]; individual animals No. 5-7) | plasma exposure of compound 14 of the group receiving 37 relative to the group receiving 14 ([13]; rats, intravenous injection, upon measurement normalization) [%] | ED50 ([12]; Staphylococcus aureus, read-out: ED50) [mg/kg]
1 | C[C@@H](O)C(O)c1ccc(-c2ccc3c(c2)OC[C@H]2[C@H](CO)OC(=O)N32)cn1 (stereo partly drawn) [Compound 18, (3R,3aS)-7-(6-((2R)-1,2-dihydroxylpropyl)pyridin-3-yl)-3-(hydroxylmethyl)-3a,4-dihydrobenzo[b]oxazolo[3,4-d][1,4]oxazin-1(3H)-one] | 2 (≈ 5.37 µM) | 1 to 2 (≈ 2.69 to 5.37 µM) | 2 to 4 (≈ 5.37 to 10.7 µM) | 2 to 4 (≈ 5.37 to 10.7 µM) | 1 to 2 (≈ 2.69 to 5.37 µM) | 4 to 8 (≈ 10.7 to 21.5 µM) | 2 to 4 (≈ 5.37 to 10.7 µM) | 0.5 (≈ 1.34 µM) | 2 to 4 (≈ 5.37 to 10.7 µM) | 4 (≈ 10.7 µM) | 4 (≈ 10.7 µM) | – | – | – | – | – | – | – | – | –
2 | N#Cc1ccc(-c2ccc3c(c2)OC[C@H]2[C@H](COC(=O)CCC(=O)O)OC(=O)N32)cn1 [Compound 34, 4-(((3R,3aS)-7-(6-cyanopyridin-3-yl)-1-oxo-1,3,3a,4-tetrahydrobenzo[b]oxazolo[3,4-d][1,4]oxazin-3-yl)methoxyl)-4-oxobutyric acid] | – | – | – | – | – | – | 4 (≈ 9.45 µM) | 0.5 (≈ 1.18 µM) | 4 (≈ 9.45 µM) | 4 (≈ 9.45 µM) | 8 (≈ 18.9 µM) | 313 to 315 | – | – | – | – | – | – | – | –
3 | CN1CC(c2ccc(-c3ccc4c(c3)OC[C@H]3[C@H](COP(=O)([O-])[O-])OC(=O)N43)cn2)OC1=O.[Na+].[Na+] (stereo partly drawn) [Compound 37] | – | – | – | – | – | – | – | – | – | – | – | – | 157 | 1.34 | 1.5 | 5.00 | 40.3 | 41.3 mL/min/kg and 35.7 mL/min/kg and 44 mL/min/kg | 134 | –
4 | CC(=O)NC[C@H]1CN(c2ccc(N3CCOCC3)c(F)c2)C(=O)O1 [LZ, linezolid, reference compound] | 1 to 2 (≈ 2.96 to 5.93 µM) | 1 to 2 (≈ 2.96 to 5.93 µM) | 1 to 2 (≈ 2.96 to 5.93 µM) | 2 (≈ 5.93 µM) | 1 (≈ 2.96 µM) | 1 to 2 (≈ 2.96 to 5.93 µM) | 8 to 16 (≈ 23.7 to 47.4 µM) | 1 (≈ 2.96 µM) | 8 to 16 (≈ 23.7 to 47.4 µM) | 16 (≈ 47.4 µM) | > 32 | – | – | – | – | – | – | – | – | 9.87

— patent US9416144B2, “Benzoxazine oxazolidinone compound, preparation method and application thereof” (priority 2012, dated 2016)
